The target in assay [1] is T1, Serine/threonine-protein kinase STK11 (Homo sapiens) (UniProt Q15831).
T1 sequence (whole entry): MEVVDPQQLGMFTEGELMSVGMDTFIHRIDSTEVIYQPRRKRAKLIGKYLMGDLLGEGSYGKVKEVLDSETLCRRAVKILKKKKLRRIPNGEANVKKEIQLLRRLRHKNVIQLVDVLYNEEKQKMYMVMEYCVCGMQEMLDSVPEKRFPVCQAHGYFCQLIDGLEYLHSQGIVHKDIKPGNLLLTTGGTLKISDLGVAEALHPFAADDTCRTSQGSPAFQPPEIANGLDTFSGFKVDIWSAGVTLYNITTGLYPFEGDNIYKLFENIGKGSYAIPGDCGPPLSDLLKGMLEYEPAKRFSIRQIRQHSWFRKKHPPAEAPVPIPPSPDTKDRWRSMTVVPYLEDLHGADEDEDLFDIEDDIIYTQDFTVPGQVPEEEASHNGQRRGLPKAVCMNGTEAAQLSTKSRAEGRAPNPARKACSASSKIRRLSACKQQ
To be noted: at 10 µM.

The subject of assay [2] is Proto-oncogene tyrosine-protein kinase receptor Ret (Homo sapiens), P07949 [M918T]. The note with it: at 10 µM.
A further assay has as its target Aurora kinase B (Homo sapiens, UniProt Q96GD4). Kind of assay: Selectivity interaction (Enyzmatic assay) EUB0000601a AURKB.
Assay [3] concerns the target T2, Calcium/calmodulin-dependent protein kinase type IV (Homo sapiens) (UniProt Q16566).
T2 sequence (whole entry): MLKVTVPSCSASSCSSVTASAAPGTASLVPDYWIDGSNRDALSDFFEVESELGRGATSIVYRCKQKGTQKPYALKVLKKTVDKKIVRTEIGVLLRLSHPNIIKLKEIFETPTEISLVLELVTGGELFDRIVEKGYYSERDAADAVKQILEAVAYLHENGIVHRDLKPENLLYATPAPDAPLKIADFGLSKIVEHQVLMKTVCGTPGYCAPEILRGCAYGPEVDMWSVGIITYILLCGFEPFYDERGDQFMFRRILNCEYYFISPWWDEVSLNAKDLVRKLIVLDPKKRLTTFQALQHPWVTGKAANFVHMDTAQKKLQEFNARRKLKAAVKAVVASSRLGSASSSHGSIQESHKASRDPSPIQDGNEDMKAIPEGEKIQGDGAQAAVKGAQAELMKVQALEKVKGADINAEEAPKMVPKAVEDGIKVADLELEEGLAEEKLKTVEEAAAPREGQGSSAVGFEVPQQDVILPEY
The note with it: at 10 µM.

For assay [4], the target named is T3, Tyrosine-protein kinase ZAP-70 (Homo sapiens) (UniProt P43403).
T3 sequence (whole entry): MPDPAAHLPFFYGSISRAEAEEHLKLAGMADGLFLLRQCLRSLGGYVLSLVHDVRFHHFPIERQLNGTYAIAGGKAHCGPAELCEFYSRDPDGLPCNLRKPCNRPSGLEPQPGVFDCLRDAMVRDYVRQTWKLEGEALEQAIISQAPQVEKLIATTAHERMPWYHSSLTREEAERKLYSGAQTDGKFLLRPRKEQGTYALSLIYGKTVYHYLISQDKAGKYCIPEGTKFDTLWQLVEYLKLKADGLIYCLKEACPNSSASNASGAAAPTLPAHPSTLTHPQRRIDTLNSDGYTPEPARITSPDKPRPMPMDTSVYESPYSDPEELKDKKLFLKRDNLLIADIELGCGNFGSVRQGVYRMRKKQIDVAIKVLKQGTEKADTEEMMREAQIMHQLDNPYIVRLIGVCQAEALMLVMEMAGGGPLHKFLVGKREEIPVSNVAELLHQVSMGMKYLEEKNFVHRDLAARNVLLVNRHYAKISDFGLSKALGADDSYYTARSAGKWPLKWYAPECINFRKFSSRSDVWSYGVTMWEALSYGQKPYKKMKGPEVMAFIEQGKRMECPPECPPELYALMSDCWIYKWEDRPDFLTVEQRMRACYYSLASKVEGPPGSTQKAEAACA
The experiment in a line: Selectivity interaction (KinomeScan (DiscoverX)) EUB0001079a ZAP70. To be noted: at 1 µM.

Assay [5] deals with Fibroblast growth factor receptor 2 (Homo sapiens) (UniProt P21802). Kind of assay: Selectivity interaction (Kinase panel (Z-LYTE Assay)) EUB0001632a FGFR2. To be noted: at 10 µM.
Fibroblast growth factor receptor 2 (Homo sapiens), sequence (P21802 22-821 limits assumed): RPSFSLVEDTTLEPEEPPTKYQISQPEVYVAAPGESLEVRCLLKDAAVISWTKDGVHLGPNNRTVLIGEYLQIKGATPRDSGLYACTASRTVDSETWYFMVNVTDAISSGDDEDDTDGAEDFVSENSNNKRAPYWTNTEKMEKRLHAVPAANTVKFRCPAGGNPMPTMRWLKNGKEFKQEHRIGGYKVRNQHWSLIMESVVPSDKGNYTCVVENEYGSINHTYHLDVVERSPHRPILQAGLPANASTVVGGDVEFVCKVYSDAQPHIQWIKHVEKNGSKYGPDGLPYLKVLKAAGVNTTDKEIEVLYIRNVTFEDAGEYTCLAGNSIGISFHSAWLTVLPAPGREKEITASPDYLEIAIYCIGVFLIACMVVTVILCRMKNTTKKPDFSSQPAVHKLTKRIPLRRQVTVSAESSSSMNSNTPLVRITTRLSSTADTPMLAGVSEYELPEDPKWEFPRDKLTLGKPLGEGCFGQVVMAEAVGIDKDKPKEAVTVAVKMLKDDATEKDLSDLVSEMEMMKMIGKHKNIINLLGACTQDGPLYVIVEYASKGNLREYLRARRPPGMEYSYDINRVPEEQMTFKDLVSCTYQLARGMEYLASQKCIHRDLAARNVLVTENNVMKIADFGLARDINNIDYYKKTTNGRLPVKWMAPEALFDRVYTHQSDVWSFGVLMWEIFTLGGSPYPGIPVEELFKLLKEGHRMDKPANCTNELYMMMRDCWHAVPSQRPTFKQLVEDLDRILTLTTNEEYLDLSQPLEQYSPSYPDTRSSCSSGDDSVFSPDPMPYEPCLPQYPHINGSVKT
The target of assay [6] is Serine/threonine-protein kinase MARK2 (Homo sapiens) (UniProt Q7KZI7). The experiment in a line: Selectivity interaction (KinomeScan (DiscoverX)) EUB0000607a MARK2. The note with it: at 10 µM.
Serine/threonine-protein kinase MARK2 (Homo sapiens), sequence (Q7KZI7 whole entry): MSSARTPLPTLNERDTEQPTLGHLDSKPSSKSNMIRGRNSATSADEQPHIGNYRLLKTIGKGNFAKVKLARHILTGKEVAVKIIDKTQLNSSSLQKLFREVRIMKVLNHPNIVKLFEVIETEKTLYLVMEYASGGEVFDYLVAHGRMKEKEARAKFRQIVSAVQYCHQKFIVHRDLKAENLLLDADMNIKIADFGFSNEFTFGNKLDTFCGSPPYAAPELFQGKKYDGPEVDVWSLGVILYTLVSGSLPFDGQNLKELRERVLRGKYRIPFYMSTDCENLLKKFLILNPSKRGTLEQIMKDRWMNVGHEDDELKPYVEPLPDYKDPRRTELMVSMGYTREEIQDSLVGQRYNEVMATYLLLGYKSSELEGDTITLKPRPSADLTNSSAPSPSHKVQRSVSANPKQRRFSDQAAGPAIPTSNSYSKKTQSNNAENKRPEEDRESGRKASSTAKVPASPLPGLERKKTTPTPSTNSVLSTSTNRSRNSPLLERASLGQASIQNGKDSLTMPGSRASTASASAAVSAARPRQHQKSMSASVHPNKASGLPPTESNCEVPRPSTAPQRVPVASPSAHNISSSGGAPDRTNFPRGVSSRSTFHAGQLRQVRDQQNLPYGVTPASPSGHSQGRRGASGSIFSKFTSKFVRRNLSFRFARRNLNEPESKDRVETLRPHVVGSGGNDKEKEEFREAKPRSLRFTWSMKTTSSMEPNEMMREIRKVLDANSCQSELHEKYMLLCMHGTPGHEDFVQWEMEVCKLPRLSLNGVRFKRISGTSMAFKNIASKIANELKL
Assay [7] addresses Hepatocyte growth factor receptor (Homo sapiens, UniProt P08581). Kind of assay: Selectivity interaction (Kinase panel (enzymatic assay)) EUB0000595a MET.

The structures appear in SMILES notation.

Aurora kinase B, sequence (Q96GD4 whole entry): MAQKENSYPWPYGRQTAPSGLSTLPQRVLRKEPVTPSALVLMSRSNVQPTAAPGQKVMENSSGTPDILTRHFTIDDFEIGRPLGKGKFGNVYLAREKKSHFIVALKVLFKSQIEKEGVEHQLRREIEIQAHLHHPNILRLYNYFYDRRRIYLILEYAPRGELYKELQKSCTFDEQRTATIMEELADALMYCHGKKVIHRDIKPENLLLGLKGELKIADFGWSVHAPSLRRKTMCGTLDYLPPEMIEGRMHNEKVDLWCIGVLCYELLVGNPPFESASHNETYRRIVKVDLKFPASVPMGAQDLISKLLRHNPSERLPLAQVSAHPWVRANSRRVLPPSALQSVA
Proto-oncogene tyrosine-protein kinase receptor Ret (Homo sapiens), P07949 [M918T], sequence (P07949 whole entry M918T): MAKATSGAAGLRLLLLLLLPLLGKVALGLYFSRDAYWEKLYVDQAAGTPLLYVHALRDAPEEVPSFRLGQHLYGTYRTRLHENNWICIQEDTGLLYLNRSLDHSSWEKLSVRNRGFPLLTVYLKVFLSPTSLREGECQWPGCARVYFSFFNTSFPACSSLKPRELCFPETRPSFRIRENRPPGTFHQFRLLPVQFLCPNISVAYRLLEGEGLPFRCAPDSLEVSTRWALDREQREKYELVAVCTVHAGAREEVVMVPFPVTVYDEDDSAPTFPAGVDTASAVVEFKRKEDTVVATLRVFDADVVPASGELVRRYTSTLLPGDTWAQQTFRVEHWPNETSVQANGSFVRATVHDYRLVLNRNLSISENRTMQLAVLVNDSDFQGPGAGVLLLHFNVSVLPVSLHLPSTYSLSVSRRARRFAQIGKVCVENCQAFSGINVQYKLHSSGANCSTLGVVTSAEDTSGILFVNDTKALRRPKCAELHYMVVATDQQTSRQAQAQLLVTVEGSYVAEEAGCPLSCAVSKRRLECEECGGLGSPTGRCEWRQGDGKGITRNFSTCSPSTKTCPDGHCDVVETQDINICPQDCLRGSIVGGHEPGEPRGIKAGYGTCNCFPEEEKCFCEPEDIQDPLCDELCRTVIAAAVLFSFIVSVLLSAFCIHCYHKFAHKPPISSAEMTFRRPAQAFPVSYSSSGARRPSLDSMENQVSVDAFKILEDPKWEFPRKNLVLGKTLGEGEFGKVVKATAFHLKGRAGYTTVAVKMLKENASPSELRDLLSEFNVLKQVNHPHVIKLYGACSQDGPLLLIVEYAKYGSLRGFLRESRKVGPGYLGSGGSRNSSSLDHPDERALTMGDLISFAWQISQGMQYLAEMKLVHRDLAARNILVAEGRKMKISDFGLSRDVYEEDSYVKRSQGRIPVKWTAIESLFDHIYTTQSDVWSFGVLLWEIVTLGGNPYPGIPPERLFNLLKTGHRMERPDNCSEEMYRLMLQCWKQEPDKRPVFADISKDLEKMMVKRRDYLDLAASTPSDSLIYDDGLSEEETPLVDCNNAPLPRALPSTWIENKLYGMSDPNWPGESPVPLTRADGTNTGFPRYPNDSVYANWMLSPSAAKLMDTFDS
Hepatocyte growth factor receptor, sequence (P08581 whole entry): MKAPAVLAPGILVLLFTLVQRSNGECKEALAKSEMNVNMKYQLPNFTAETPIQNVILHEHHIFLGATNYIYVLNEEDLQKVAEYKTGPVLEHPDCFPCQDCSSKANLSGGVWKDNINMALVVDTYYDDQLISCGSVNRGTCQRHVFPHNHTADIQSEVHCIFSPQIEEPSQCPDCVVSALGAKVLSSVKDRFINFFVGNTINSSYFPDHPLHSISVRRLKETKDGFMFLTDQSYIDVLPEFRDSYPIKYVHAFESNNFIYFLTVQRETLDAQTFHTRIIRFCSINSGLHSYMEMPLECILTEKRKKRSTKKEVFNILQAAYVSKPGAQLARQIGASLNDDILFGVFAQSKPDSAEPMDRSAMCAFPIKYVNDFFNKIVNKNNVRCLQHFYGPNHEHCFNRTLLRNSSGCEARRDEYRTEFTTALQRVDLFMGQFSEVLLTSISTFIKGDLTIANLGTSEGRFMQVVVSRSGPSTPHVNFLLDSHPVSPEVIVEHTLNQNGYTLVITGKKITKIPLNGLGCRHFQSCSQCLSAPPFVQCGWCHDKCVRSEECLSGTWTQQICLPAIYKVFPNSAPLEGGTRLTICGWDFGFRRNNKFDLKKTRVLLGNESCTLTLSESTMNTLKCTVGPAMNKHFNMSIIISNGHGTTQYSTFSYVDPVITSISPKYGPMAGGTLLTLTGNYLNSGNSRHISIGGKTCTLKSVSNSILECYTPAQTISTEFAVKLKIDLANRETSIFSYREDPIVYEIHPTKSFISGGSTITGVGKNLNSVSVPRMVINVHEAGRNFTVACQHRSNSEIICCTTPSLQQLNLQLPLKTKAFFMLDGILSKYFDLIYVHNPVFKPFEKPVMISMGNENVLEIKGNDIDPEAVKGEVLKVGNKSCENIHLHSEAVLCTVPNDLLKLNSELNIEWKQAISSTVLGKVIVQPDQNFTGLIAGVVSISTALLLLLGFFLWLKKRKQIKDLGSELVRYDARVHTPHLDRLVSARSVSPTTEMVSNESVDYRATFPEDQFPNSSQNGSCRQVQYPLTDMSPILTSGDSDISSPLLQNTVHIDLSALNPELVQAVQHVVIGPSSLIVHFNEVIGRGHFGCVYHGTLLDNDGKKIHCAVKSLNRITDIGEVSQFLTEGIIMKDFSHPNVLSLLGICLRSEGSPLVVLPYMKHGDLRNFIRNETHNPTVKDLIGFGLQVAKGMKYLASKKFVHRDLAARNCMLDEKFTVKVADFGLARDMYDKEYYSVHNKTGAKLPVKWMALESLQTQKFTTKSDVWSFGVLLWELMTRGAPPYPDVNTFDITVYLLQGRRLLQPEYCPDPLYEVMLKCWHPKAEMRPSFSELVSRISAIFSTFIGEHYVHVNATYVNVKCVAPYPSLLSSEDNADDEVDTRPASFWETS

As for `Cc1cc([C@@H](C)Nc2ccccc2C(=O)O)c2nc(N3CCOCC3)cc(=O)n2c1` [AZD-6482], the % of control in assay [1] worked out at 98%; in assay [2], 100%.
The term IC50 denotes the midpoint of a concentration-inhibition curve. For `CCc1cc(Nc2nccc(-c3c(-c4ccc(OC)c(C(=O)Nc5c(F)cccc5F)c4)nc4ccccn34)n2)c(OC)cc1N1CCC(N2CCN(S(C)(=O)=O)CC2)CC1`, the IC50 on Aurora kinase B is > 4 µM.
`CCN(CC)CCCCNc1ncc2cc(-c3cc(OC)cc(OC)c3)c(NC(=O)NC(C)(C)C)nc2n1`: the % of control in assay [3] came to 100%.
In assay [4], `Nc1cnc(N2CCc3cc(S(=O)(=O)Nc4c(F)cc(Cl)cc4F)cc(N4CCCC4=O)c32)nc1` [TP-020n] came in with a % of control of 85%.
`Cn1cc(-n2cnc3c(NCc4nc5cc(Cl)c(Cl)cc5[nH]4)nc(N4CCOCC4)nc32)cn1`: in assay [5], the % of control came out at 17.8%.
In the case of `CNC(=O)Nc1ccc(-c2nc(N3CC4CCC(C3)O4)c3cnn(C4CCC5(CC4)OCCO5)c3n2)cc1`, in assay [6], the % of control was 100%.
As for `COCC(=O)NC/C=C/c1ccc2ncnc(Nc3ccc(Oc4ccc(C)nc4)c(C)c3)c2c1` [CP-724714], the IC50 in assay [7] was > 10 µM.

The values are drawn from ChEMBL document CHEMBL5465560, “Selectivity Literature for EUbOPEN Chemogenomic Library” (2024).
